Assay results taken from article PMC12072002, “Site-Directed Mutagenesis Increased the Catalytic Activity and Stability of Oenococcus oeni β-Glucosidase: Characterization of Enzymatic Properties and Exploration of Mechanisms” (International Journal of Molecular Sciences, 2025).
pIC50: −log10 of the molar value. Read-outs that look alike come from different tables or passages of the source.

Experiments:
Type in all cases: biochemical, Oenococcus oeni SD-2a
[1] = test system: mutant IV (β-glucosidase N181R); set-up: key to IC50 on Mutant IV: “-”represents no enzymatic activity; settings: for effect on enzyme activity of mutant IV: in words
Description: The method for the determination of the effects of different metal ions and additives on enzyme activity was referred to Zhou et al., with slight modifications. […] The enzyme solutions (10 μL), p-NPG solution (490 μL) and different concentrations of additive solutions (500 μL) were mixed well. The reaction lasted for 30 min under the optimal reaction conditions of the enzyme. Then, 1mL 1 M Na2CO3 was added to terminate the reaction. The absorbance value of the reaction system was measured at 420 nm and the activity of the BGLs was calculated according to the standard curve. The IC50 (half of the maximum inhibitory concentration) of the reagents on BGL activity was calculated using a logistic function with Growth/Sigmoidal-type nonlinear fitting in Origin Pro 8.0.

[2] = test system: wild-type enzyme (β-glucosidase BGL0224); test: Effects of metal ions and additives on enzyme activity (p-NPG hydrolysis, IC50); settings: for effect on enzyme activity of the wild-type enzyme: in words; for pIC50 / IC50 on Wild-Type Enzyme: metal ions and additives, Concentration 5 mM, optimum temperature and pH
Description: (§1) The method for the determination of the effects of different metal ions and additives on enzyme activity was referred to Zhou et al., with slight modifications. To determine the effects of metal ions and some additives on the BGLs’ activity, lyophilized powders of the wild-type and mutant BGLs were formulated into solutions with a final concentration of 10 mg/mL using 20 mM sodium phosphate buffer as well as 25 mM of p-NPG substrate solution and different concentrations (0.1 mM, 0.5 mM, 1.0 mM, 5.0 mM and 10 mM) of metal ion solutions (K^+, Na^+, Li^+, Ag^+, Mg^2+, Zn^2+, Ba^2+, Ca^2+, Cu^2+, Mn^2+, Fe^2+ and Fe^3+) and additive solutions (SDS, DTT, EDTA, TritonX-100 and Tween-80). The enzyme solutions (10 μL), p-NPG solution (490 μL) and different concentrations of additive solutions (500 μL) were mixed well. The reaction lasted for 30 min under the optimal reaction conditions of the enzyme. Then, 1mL 1 M Na2CO3 was added to terminate the reaction. The absorbance value of the reaction system was measured at 420 nm and the activity of the BGLs was calculated according to the standard curve. The IC50 (half of the maximum inhibitory concentration) of the reagents on BGL activity was calculated using a logistic function with Growth/Sigmoidal-type nonlinear fitting in Origin Pro 8.0.

[3] = test system: mutant III (β-glucosidase F133K); test: as above; settings: for effect on enzyme activity of mutant III: in words; for pIC50 / IC50 on Mutant III: metal ions and additives, Concentration 5 mM, optimum temperature and pH
Description: as §1

[4] = target: mutant III (β-glucosidase F133K); test: as above; set-up: key: “-”represents no enzymatic activity; settings: additive concentration 0.2%
[5] = target: wild-type enzyme (β-glucosidase BGL0224); test: as above; set-up: key: “-”represents no enzymatic activity; settings: additive concentration 0.2%
[6] = metal ions and additives, Concentration 5 mM, optimum temperature and pH

| Molecule | effect on enzyme activity of mutant IV ([1]; metal ion at 5 mM) | pIC50 [1, 6] | effect on enzyme activity of the wild-type enzyme ([2]; metal ion at 5 mM) | pIC50 [2] | effect on enzyme activity of mutant III ([3]; metal ion at 5 mM) | pIC50 [3] | further results |
| --- | --- | --- | --- | --- | --- | --- | --- |
| [Ag+] [Ag^+] | inhibitory effects | 2.53 | inhibitory effects | 2.13 | inhibitory effects | 2.52 |  |
| [Ba+2] [Ba^2+] | enhanced |  | enhanced |  | enhanced |  | IC50 on Mutant IV [1, 6]: Activator; IC50 on Wild-Type Enzyme [2]: Activator; IC50 on Mutant III [3]: Activator |
| [Ca+2] [Ca^2+] | inhibitory effects | 2.48 | inhibitory effects | 2.39 | inhibitory effects | 2.47 |  |
| [Cu+2] [Cu^2+] | inhibitory effects | 2.80 | inhibitory effects | 2.51 | inhibitory effects | 2.46 |  |
| O[C@@H](CS)[C@@H](O)CS [DTT] |  | 2.21 |  | 2.10 |  | 2.26 |  |
| O=C(O)CN(CCN(CC(=O)O)CC(=O)O)CC(=O)O [EDTA] |  | 2.15 |  | 2.19 |  | 2.16 |  |
| [Fe+2] [Fe^2+] | inhibitory effects | 2.35 | inhibitory effects | 2.55 | inhibitory effects | 2.40 |  |
| [K+] [K^+] |  | 2.62 | enhanced |  | enhanced |  | inhibition rate on mutant IV ([1]; metal ion at 5 mM): 85.02%; IC50 on Wild-Type Enzyme [2]: Activator; IC50 on Mutant III [3]: Activator |
| [Li+] [Li^+] | enhanced |  | enhanced |  | enhanced |  | IC50 on Mutant IV [1, 6]: Activator; IC50 on Wild-Type Enzyme [2]: Activator; IC50 on Mutant III [3]: Activator |
| [Mg+2] [Mg^2+] | inhibitory effects | 2.27 | inhibitory effects | 2.05 | inhibitory effects | 2.47 |  |
| [Mn+2] [Mn^2+] | promoted |  |  | 2.42 | promoted |  | IC50 on Mutant IV [1, 6]: Activator; inhibition of wild-type enzyme activity ([2]; metal ion at 5 mM): 76.51%; IC50 on Mutant III [3]: Activator |
| [Na+] [Na^+] | increased |  | increased |  |  | 3.03 | IC50 on Mutant IV [1, 6]: Activator; IC50 on Wild-Type Enzyme [2]: Activator; inhibition rate on mutant III ([3]; metal ion at 5 mM): 97.45% |
| CCCCCCCCCCCCOS(=O)(=O)[O-].[Na+] [SDS] |  | 2.20 |  | 2.10 |  | 2.17 |  |
| [Zn+2] [Zn^2+] | inhibitory effects | 2.53 | inhibitory effects | 2.41 | inhibitory effects | 2.50 |  |
| Triton X-100 [Triton-X100] |  |  |  |  |  |  | IC50 on Mutant III [4]: -; IC50 on Wild-Type Enzyme [5]: -; IC50 on Mutant IV ([1]; additive concentration 0.2%): - |
| Tween-80 |  |  |  |  |  |  | IC50 on Mutant III [4]: -; IC50 on Wild-Type Enzyme [5]: -; IC50 on Mutant IV ([1]; additive concentration 0.2%): - |
